According to patent publication US5929035A, “Methods of treating intestinal disorders” (Regents of the University of Michigan, priority 1998, dated 1999):
“And” between values parts separate entries of the source, which are not always exact repeats. Identical values can stand only once. Like-named read-outs stand apart in the source and are kept apart here.

Legend:
[1] = test system: longitudinal muscle from rat proximal colon
guinea pig ileum = settings: cited from earlier work
[2] = test system: longitudinal and circular muscle layer from the stomach and small intestine; set-up: species or system rat
stomach = test system: stomach; set-up: species or system rats; settings: rat, in vivo, iv
gastrointestinal transit = test system: gastrointestinal transit; set-up: species or system rats; settings: rat, in vivo, sc
colonic transit = test system: colonic transit; set-up: species or system rats; settings: rat, in vivo, sc
[3] = test system: longitudinal muscle strips from rat gastric body
[4] = test system: 3H-ACh release from longitudinal muscle strips of proximal colon; set-up: species or system rat
[5] = test system: longitudinal muscle strips from rat ileum
[6] = test system: 3H-ACh release from longitudinal muscle strips of gastric body; set-up: species or system rat
[7] = test system: longitudinal muscle strips from rat proximal colon
[8] = test system: longitudinal and circular muscle from rat colon (proximal colon and distal colon)
[9] = test system: longitudinal and circular muscle of the rat proximal colon
proximal colon = test system: proximal colon; set-up: species or system rats; settings: rat, in vivo, iv
[10] = test system: longitudinal muscle from the rat proximal colon
mouse vas deferens = settings: cited from earlier work
[11] = test system: 3H-ACh release from longitudinal muscle strips of ileum; set-up: species or system rat
[12] = test system: longitudinal muscle strips of proximal colon from BAC- or vehicle-treated rats; assay: Benzalkonium chloride (BAC) myenteric plexus ablation, organ bath experiments; set-up: species or system rat
Excerpt: This example examined benzalkonium chloride (BAC)-treatment. […] EFS caused frequency-dependent and TTX-sensitive contractions in vehicle-treated tissues but not BAC-treated tissues. However, carbachol contracted both vehicle- and BAC-treated tissues with the same degree. These previous studies indicate that chronic ablation of the myenteric plexus by serosal application of BAC essentially eliminates neuronally mediated responses without a concomitant alteration in muscle contractility. To investigate if the action of OFQ is mediated via intramural myenteric plexus, BAC (0.1%) was applied to the serosal surface of the proximal colon every 5 min for 30 min and then rinsed off with saline. Saline-treated group served as controls. Two weeks after BAC- or saline-treatment, the longitudinal muscle strips were used for the organ bath experiments.
The area under the curve was calculated using Planix 7 (Sokkia Corporation,Overland Park, Kans.) and expressed as a motility index. The area under the curve of basal contraction was evaluated over 10 min in each experiment. The area under the curve of antagonist-induced contractions and OFQ-induced contractions was also evaluated over 10 min. The motility index was compared between basal contractions and OFQ-induced contractions in each experiment.

opioid receptor = settings: cited from earlier work
post-operative ileus = settings: cited from earlier work
IBS patients = settings: literature; cited from earlier work
colonic motility = settings: literature; cited from earlier work
[13] = patients after abdominal / gastrointestinal surgery, literature trials

With “[D-Pro^4, D-Trp7.9]-substance P 4-11 [substance P antagonist]” the “effect of antagonist on OFQ-induced contractions” value (from here on “effect of antagonist”) [1] was “did not affect”.

For `CC(C)C[C@H](NC(=O)[C@H](CCCCN)NC(=O)[C@H](CCCN=C(N)N)NC(=O)[C@H](C)NC(=O)[C@H](CO)NC(=O)[C@H](CCCCN)NC(=O)[C@H](CCCN=C(N)N)NC(=O)[C@H](C)NC(=O)CNC(=O)[C@@H](NC(=O)[C@H](Cc1ccccc1)NC(=O)CNC(=O)CNC(=O)[C@@H](N)Cc1ccccc1)[C@@H](C)O)C(=O)N[C@@H](C)C(=O)N[C@@H](CC(N)=O)C(=O)N[C@@H](CCC(N)=O)C(=O)O` [OFQ, Phe-Gly-Gly-Phe-Thr-Gly-Ala-Arg-Lys-Ser-Ala-Arg-Lys-Leu-Ala-Asn-Gln], the “effect on EFS-evoked muscular contraction” value (guinea pig ileum) is given as “potent inhibitory effects”, the “contractions in longitudinal and circular muscle layer from stomach and small intestine” value [2] is given as “failed to elicit significant contractions” and the “muscular contractions in the stomach” value (stomach) is given as “not in the stomach”. The gastrointestinal transit (gastrointestinal transit) was “without affecting”, the colonic transit (colonic transit) was “significantly accelerated” and the “EFS-evoked muscular contraction reduced to” value [3] was 85.2±5.6%. The “EFS-evoked of-contraction in the stomach” value [3] was “significantly reduced”, the “dose dependence of reduction of EFS-evoked muscular contraction” value [3] was “in a dose dependent manner” and the “basal release of 3H-ACh” value [4] was “no effects”. The “inhibitory effect on EFS-evoked 3H-ACh release” value [4] was “not observed”, the “EFS-evoked muscular contraction reduced to” value [5] was 41.2±8.5% and the “EFS-evoked on- and off-contraction in ileum” value [5] was “significantly reduced”. The “dose dependence of reduction of EFS-evoked muscular contraction” value [5] was “in a dose dependent manner”, the “OFQ-induced contractions in Ca2+-free medium” value [1] was “abolished” and the “3H-ACh release in response to EFS reduced to” value [6] was 88.1±4.3%. For the same molecule, the “basal release of 3H-ACh” value [6] was “no effects”, the “off-contraction in response to EFS of the proximal colon” value [7] was “no inhibitory effects” and the “reduction of EFS-evoked muscular contraction” value [7] was “not in the proximal colon”. The “contractions in longitudinal muscle of proximal colon compared with distal colon (in words)” value [8] was “much greater”, the “contractions in longitudinal muscle of proximal colon relative to distal colon” value [8] was 2-3 fold and the “region of rat gastrointestinal tract in which contractions were induced” value [8] was “induced contractions only in the colon”. The “threshold OFQ concentration inducing contractions” value [8] was 10^-9 M, the “contractions at 10^-7 M compared with 10^-6 M” value [9] was “not significantly different” and the “dose dependence of induced contractions” value [9] was “in a dose-dependent manner”. For the same molecule, the “maximal effect, increase of basal contraction” value [9] was 278%±24% and 215%±32%, the “persistence of strong phasic contractions” value [9] was 10 to 15 min and the “strips showing a potent initial phasic contraction followed by a phasic response” value [9] was 60.9%. The “strips showing a smaller initial contraction followed by a gradually increasing phasic response” value [9] was 26.4%, the “strips showing only a slight initial contraction followed by a pronounced phasic response” value [9] was 12.6% and the “muscular contractions in the proximal colon” value (proximal colon) was “significantly increased muscular contractions”. The “OFQ-induced contractions in the presence of TTX” value [10] was “failed to elicit additional contractions”, the “effect on EFS-evoked muscular contraction” value (mouse vas deferens) was “potent inhibitory effects” and the “3H-ACh release in response to EFS reduced to” value [11] was 44.7±5.8%. For the same molecule, the “basal release of 3H-ACh” value [11] was “no effects”, the “contraction of longitudinal muscle from vehicle-treated rats” value [12] was “caused significant contractions” and the “contraction of longitudinal muscles from BAC-treated rats” value [12] was “no contractile effects”. The “activity at the opioid receptor” value (opioid receptor) was “does not show any activity”.

In the case of `CN1C[C@H](C(=O)N[C@]2(C)O[C@@]3(O)[C@@H]4CCCN4C(=O)[C@H](Cc4ccccc4)N3C2=O)C[C@@H]2c3cccc4[nH]cc(c34)C[C@H]21` [DHE, dihydroergotamine], the “duration of post-operative ileus, treated vs placebo/control patients” value (“duration … vs placebo/control patients” below) (post-operative ileus; [13]) is given as “no significant differences”.

With `N=C(N)NCCN1CCCCCCC1` [guanethidine] the “effect of antagonist” value [1] was “not affected”.

With `COC(=O)[C@@H](N)CCCNC(=N)N[N+](=O)[O-]` [L-NAME, NG-nitro-L-arginine methyl ester] the “effect of antagonist” value [1] was “preserved” and the “effect on spontaneous contractions in the proximal colon” value (“effect on spontaneous contractions” below) [1] was “enhanced spontaneous contractions”.

For `COc1cc(N)c(Cl)cc1C(=O)NC1CCN(CCCOc2ccc(F)cc2)CC1OC` (stereo not shown) [cisapride, Cisapride], the “stool frequency in IBS patients” value (IBS patients) is given as “increase stool frequency”, the “whole gut transit in IBS patients” value (IBS patients) is given as “accelerate whole gut transit” and the “duration … vs placebo/control patients” value (post-operative ileus; [13]) is given as “no difference”. For the same molecule, the “effect on colonic motility” value (colonic motility) was “little effect” and the “efficacy in constipated patients” value (colonic motility) was “not very effective”.

With `C[N+](C)(C)CCOC(N)=O` [carbachol, reference compound] the “contractions in the presence of TTX” value [10] was “caused further contractions” and the “contraction of control and BAC-treated tissues” value ([12]; carbachol 10^-6 M) was “contracted both control and BAC-treated tissues with the same degree”.

In the case of `CC[C@@H](CO)NC(=O)[C@@H]1C=C2c3cccc4c3c(cn4C)C[C@H]2N(C)C1` [methysergide], the “effect of antagonist” value [1] is reported as “did not affect”.

With “[p-chloro-D-Phe^6, LEU ^17 ]-VIP [VIP antagonist]” the “antagonism of the action of VIP” value [1] was “significantly antagonized”, the “effect of antagonist” value [1] was “did not affect” and the “effect on spontaneous contractions” value [1] was “no significant effects”.

For `CCN(CC)CCNC(=O)c1cc(Cl)c(N)cc1OC` [metoclopramide], the “effect on colonic motility” value (colonic motility) is given as “little effect” and the “efficacy in constipated patients” value (colonic motility) is given as “not very effective”.

In the case of `Cc1ccc(N(CC2=NCCN2)c2cccc(O)c2)cc1` [phentolamine], the “effect of antagonist” value [1] is reported as “not affected”.

For `C[N+](C)(C)CCCCCC[N+](C)(C)C` [hexamethonium], the “effect of antagonist” value [1] was “did not affect”.

In the case of `CN1[C@@H]2CC[C@H]1C[C@@H](OC(=O)C(CO)c1ccccc1)C2` (stereo partly shown) [atropine, Atropine, reference compound], the “EFS-evoked on- and off-contraction reduced to” value [3] is reported as 10-20%, the “EFS-evoked on- and off-contraction reduced to” value [5] is reported as 10-20% and the “effect of antagonist” value [1] is reported as “did not affect”. For the same molecule, the “EFS-evoked on- and off-contraction reduced to” value [7] was 10-20%.

For `CCCCCCCCCCCCC[N+](C)(C)Cc1ccccc1` [BAC, benzalkonium chloride], the “spontaneous basal muscle contraction in BAC-treated vs vehicle-treated tissues” value ([12]; BAC 0.1% on serosal surface of proximal colon, two weeks before) was “significantly higher” and the “response to EFS of muscle strips from BAC-treated rats” value ([12]; EFS 65 V, 0.5 msec, 10 Hz) was “failed to cause any responses”.

In the case of dynorphin A [reference compound], the colonic transit (colonic transit) is reported as “delays colonic transit”.

With `C=CCN1CC[C@]23c4c5ccc(O)c4O[C@H]2C(=O)CC[C@@]3(O)[C@H]1C5` [naloxone] the “effect of antagonist” value ([1]; 10 min preincubation, then OFQ (10^-8 M), atropine 10^-6 M, hexamethonium 10^-4 M, naloxone 10^-5 M, indomethacin 10^-5 M, methysergide 3x10^-5 M, substance P antagonist 10^-5 M, VIP antagonist 5x10^-6 M, L-NAME 10^-4 M, apamin 10^-6 M, guanethidine, phentolamine, propranolol 10^-6 M) was “did not affect”.

For `COc1ccc2c(c1)c(CC(=O)O)c(C)n2C(=O)c1ccc(Cl)cc1` [indomethacin], the “effect of antagonist” value [1] was “did not affect”.

In the case of `CC(C)NCC(O)COc1cccc2ccccc12` (stereo not shown) [propranolol], the “effect of antagonist” value [1] is reported as “not affected”.

For `CC(C)C[C@@H]1NC(=O)[C@H](C)NC(=O)[C@H]([C@@H](C)O)NC(=O)[C@H](CCC(=O)O)NC(=O)[C@@H]2CCCN2C(=O)[C@H](C)NC(=O)[C@H](CCCCN)NC(=O)[C@@H]2CSSC[C@@H](C(=O)N[C@@H](CCC(N)=O)C(=O)N[C@@H](CCC(N)=O)C(=O)N[C@@H](Cc3cnc[nH]3)C(N)=O)NC(=O)[C@H](CCCNC(=N)N)NC(=O)[C@H](CCCNC(=N)N)NC(=O)[C@H](C)NC(=O)[C@H](CSSC[C@H](N)C(=O)N[C@@H](CC(N)=O)C(=O)N2)NC1=O` [apamin], the “effect of antagonist” value [1] was “preserved” and the “effect on spontaneous contractions” value [1] was “enhanced spontaneous contractions”.

B1: cholecystokinin (peptide, UniProt P06307 21-115, looked up)
Cholecystokinin: QPVPPADPAGSGLQRAEEAPRRQLRVSQRTDGESRAHLGALLARYIQQARKAPSGRMSIVKNLQNLDPSHRISDRDYMGWMDFGRRSAEEYEYPS
modifications: Cholecystokinin
In the case of B1, the “duration … vs placebo/control patients” value (post-operative ileus; human, in vivo) is given as “no differences”.
